Reference: ChEMBL document CHEMBL1201862, “PubChem BioAssay data set” (2004)
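Step 1: Grow cells in 96-well plates. Step 2: Expose to compound for 48 hours at 5 concentrations. Step 3: Interpolate endpoints linearly; if unreached, use highest concentration. GI50 = concentration required for 50% inhibition of growth.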 Activity calls are given as the source filed them. Cut-off read from the data, not from the text of the source: active = GI50 up to about 1.1 µM and inactive = higher.

Experiments:
Experiment in all cases: growth of human tumour cells (NCI), 48 h
CCRF-CEM = test system: CCRF-CEM
SF-295 = test system: SF-295
OVCAR-4 = test system: OVCAR-4
COLO 205 = test system: COLO 205
HT-29 = test system: HT-29
SK-MEL-2 = test system: SK-MEL-2
LOX IMVI = test system: LOX IMVI
M14 = test system: M14
A549 = test system: A549
HCC 2998 = test system: HCC 2998
NCI-H522 = test system: NCI-H522
SR = test system: SR
SN12C = test system: SN12C
U-251 = test system: U-251
HCT-15 = test system: HCT-15
UACC-62 = test system: UACC-62
A498 = test system: A498
NCI-H226 = test system: NCI-H226
RXF 393 = test system: RXF 393

Compound: NNC(=S)N/N=C(/C(=O)Nc1ccc([N+](=O)[O-])cc1)c1nc2ccc([N+](=O)[O-])cc2nc1O
- GI50 (CCRF-CEM): > 100 µM (inactive)
- GI50 (SF-295): > 100 µM (inactive)
- GI50 (OVCAR-4): > 100 µM (inactive)
- GI50 (COLO 205): > 100 µM (inactive)
- GI50 (HT-29): > 100 µM (inactive)
- GI50 (SK-MEL-2): > 100 µM (inactive)
- GI50 (LOX IMVI): > 100 µM (inactive)
- GI50 (M14): > 100 µM (inactive)
- GI50 (A549): > 100 µM (inactive)
- GI50 (HCC 2998): > 100 µM (inactive)
- GI50 (NCI-H522): 36.5 µM (inactive)
- GI50 (SR): > 100 µM (inactive)
- GI50 (SN12C): > 100 µM (inactive)
- GI50 (U-251): > 100 µM (inactive)
- GI50 (HCT-15): 74.6 µM
- GI50 (UACC-62): > 100 µM (inactive)
- GI50 (A498): > 100 µM (inactive)
- GI50 (NCI-H226): > 100 µM (inactive)

Compound: CC1=C(C(=O)Nc2ccc([N+](=O)[O-])cc2)C(c2ccccc2F)C(C(=O)Nc2ccc([N+](=O)[O-])cc2)=C(C)N1
- GI50 (CCRF-CEM): 7 µM (inactive)
- GI50 (SF-295): 20.3 µM (inactive)
- GI50 (OVCAR-4): 9.14 µM (inactive)
- GI50 (COLO 205): 13 µM (inactive)
- GI50 (HT-29): 20.1 µM (inactive)
- GI50 (SK-MEL-2): 9.31 µM (inactive)
- GI50 (RXF 393): 6.75 µM (inactive)
- GI50 (LOX IMVI): 11 µM (inactive)
- GI50 (M14): 15.1 µM (inactive)
- GI50 (A549): 9.64 µM (inactive)
- GI50 (HCC 2998): 5.94 µM (inactive)
- GI50 (NCI-H522): 8.2 µM (inactive)
- GI50 (SN12C): 8.18 µM (inactive)
- GI50 (U-251): 14.9 µM (inactive)
- GI50 (A498): 5.48 µM (inactive)
- GI50 (NCI-H226): 14 µM (inactive)

Compound: Nc1nc(SCCC/C=C/I)nc2c1ncn2C1OC(CO)C(O)C1O (centres undefined)
- GI50 (CCRF-CEM): 98.4 µM (inactive)
- GI50 (SF-295): > 202 µM (inactive)
- GI50 (OVCAR-4): > 202 µM (inactive)
- GI50 (COLO 205): > 202 µM (inactive)
- GI50 (HT-29): > 202 µM (inactive)
- GI50 (SK-MEL-2): > 202 µM (inactive)
- GI50 (LOX IMVI): > 202 µM (inactive)
- GI50 (M14): > 202 µM (inactive)
- GI50 (A549): > 202 µM (inactive)
- GI50 (NCI-H522): > 202 µM (inactive)
- GI50 (SR): > 202 µM (inactive)
- GI50 (SN12C): > 202 µM (inactive)
- GI50 (U-251): > 202 µM (inactive)
- GI50 (HCT-15): > 202 µM
- GI50 (UACC-62): > 202 µM (inactive)
- GI50 (A498): > 202 µM (inactive)
- GI50 (NCI-H226): > 202 µM (inactive)

Compound: C#Cc1c(C)c(/C=C/C(C)=C\C(=O)OC)n(C)c1C
- GI50 (CCRF-CEM): 33.8 µM (inactive)
- GI50 (SF-295): > 100 µM (inactive)
- GI50 (OVCAR-4): 75.9 µM (inactive)
- GI50 (COLO 205): 61.2 µM (inactive)
- GI50 (HT-29): 28.6 µM (inactive)
- GI50 (LOX IMVI): > 100 µM (inactive)
- GI50 (M14): > 100 µM (inactive)
- GI50 (A549): > 100 µM (inactive)
- GI50 (HCC 2998): > 100 µM (inactive)
- GI50 (NCI-H522): 50.7 µM (inactive)
- GI50 (SN12C): > 100 µM (inactive)
- GI50 (U-251): > 100 µM (inactive)
- GI50 (HCT-15): 92.9 µM
- GI50 (UACC-62): 70.8 µM (inactive)
- GI50 (A498): 81.3 µM (inactive)
- GI50 (NCI-H226): > 100 µM (inactive)

Compound: O=C1OC(=O)c2c1c(-c1ccccc1)nc1ccccc21
- GI50 (CCRF-CEM): > 100 µM (inactive)
- GI50 (SF-295): > 100 µM (inactive)
- GI50 (COLO 205): > 100 µM (inactive)
- GI50 (HT-29): > 100 µM (inactive)
- GI50 (SK-MEL-2): > 100 µM (inactive)
- GI50 (RXF 393): > 100 µM (inactive)
- GI50 (LOX IMVI): > 100 µM (inactive)
- GI50 (M14): > 100 µM (inactive)
- GI50 (A549): > 100 µM (inactive)
- GI50 (HCC 2998): > 100 µM (inactive)
- GI50 (NCI-H522): > 100 µM (inactive)
- GI50 (SN12C): > 100 µM (inactive)
- GI50 (U-251): > 100 µM (inactive)
- GI50 (HCT-15): > 100 µM
- GI50 (UACC-62): > 100 µM (inactive)
- GI50 (A498): > 100 µM (inactive)
- GI50 (NCI-H226): > 100 µM (inactive)

Compound: N#C/C(C(=O)Nc1ccccc1)=C(/N)N1CCCCC1
- GI50 (CCRF-CEM): > 100 µM (inactive)
- GI50 (SF-295): > 100 µM (inactive)
- GI50 (COLO 205): > 100 µM (inactive)
- GI50 (HT-29): > 100 µM (inactive)
- GI50 (SK-MEL-2): > 100 µM (inactive)
- GI50 (LOX IMVI): > 100 µM (inactive)
- GI50 (M14): 91 µM (inactive)
- GI50 (A549): > 100 µM (inactive)
- GI50 (HCC 2998): > 100 µM (inactive)
- GI50 (SR): > 100 µM (inactive)
- GI50 (SN12C): > 100 µM (inactive)
- GI50 (U-251): > 100 µM (inactive)
- GI50 (HCT-15): > 100 µM
- GI50 (UACC-62): 95.7 µM (inactive)
- GI50 (NCI-H226): > 100 µM (inactive)

Compound: CC(=O)C1C(=O)C(=O)N(c2ccccc2C(C)C)C1=O (centres undefined)
- GI50 (CCRF-CEM): > 100 µM (inactive)
- GI50 (SF-295): > 100 µM (inactive)
- GI50 (OVCAR-4): > 100 µM (inactive)
- GI50 (COLO 205): > 100 µM (inactive)
- GI50 (HT-29): > 100 µM (inactive)
- GI50 (SK-MEL-2): > 100 µM (inactive)
- GI50 (RXF 393): > 100 µM (inactive)
- GI50 (LOX IMVI): > 100 µM (inactive)
- GI50 (M14): > 100 µM (inactive)
- GI50 (A549): > 100 µM (inactive)
- GI50 (HCC 2998): > 100 µM (inactive)
- GI50 (NCI-H522): > 100 µM (inactive)
- GI50 (SN12C): > 100 µM (inactive)
- GI50 (U-251): > 100 µM (inactive)
- GI50 (HCT-15): > 100 µM
- GI50 (UACC-62): > 100 µM (inactive)
- GI50 (A498): > 100 µM (inactive)
- GI50 (NCI-H226): > 100 µM (inactive)

Compound: CC(C1=CC=C2[C@@H]3CCC4CC(N(C)C)CC[C@]4(C)C3CC[C@]12C)N(C)C=O (some centres undefined)
- GI50 (CCRF-CEM): > 100 µM (inactive)
- GI50 (SF-295): > 100 µM (inactive)
- GI50 (OVCAR-4): > 100 µM (inactive)
- GI50 (COLO 205): > 100 µM (inactive)
- GI50 (HT-29): 25.3 µM (inactive)
- GI50 (SK-MEL-2): > 100 µM (inactive)
- GI50 (RXF 393): > 100 µM (inactive)
- GI50 (LOX IMVI): 25.7 µM (inactive)
- GI50 (M14): > 100 µM (inactive)
- GI50 (A549): > 100 µM (inactive)
- GI50 (HCC 2998): > 100 µM (inactive)
- GI50 (NCI-H522): > 100 µM (inactive)
- GI50 (SN12C): > 100 µM (inactive)
- GI50 (U-251): > 100 µM (inactive)
- GI50 (HCT-15): > 100 µM
- GI50 (UACC-62): > 100 µM (inactive)
- GI50 (A498): 6.49 µM (inactive)
